Key:
[1] = tested on: T47D; experiment: Apoptosis by flow cytometry (annexin V-FITC/PI), T47D; type: cell-based, human; details: 10 μM, 36 h
Procedure: (§1) Apoptosis study was performed by flow cytometry using annexin V-FITC-labeled apoptosis detection kit (Sigma) following manufacturer's protocol. Cells (□×□□^□ cells/well) were seeded in six-well plates and incubate for 16-18 h. After 16-18 h, cells were either kept untreated or treated with 10 μM compound 1 and 10 μM 6c for 36 h. Next, cells were trypsinized and washed with PBS. Then the cells were re-suspended in 1× binding buffer at a density of 1×10^6 cells/ml and stained simultaneously with FITC-labeled annexin V (25 ng/ml) and propidium iodide (50 ng/ml). After 15 min incubation, cells were analyzed using a flow cytometer (FACS Canto II, Becton-Dickinson, San Jose, Calif., USA), and data were analyzed with FCS Express V3 software. Minimum of 10000 events were gated per sample.

[2] = tested on: PI3K/AKT pathway involving protein in B16F10 cells; experiment: Western blot of B16F10 cell lysates: PI3K/AKT pathway involving protein (FIG. 4B); type: cell-based, murine; details: B16F10, 10 μM, 36 h
Procedure: (§2) For in vitro cell lysate preparation, B16F10 cells were either treated with compound 1 (10 μM), 6c (10 μM) or kept untreated for 36 h continuously. After that cells were washed with cold PBS for two times, and lysed by incubating for 30 min on ice with ice-cold RIPA lysis buffer (50 mM Tris [pH 7.5], 1% NP-40, 150 mM NaCl, 0.1% sodium dodecyl sulfate [SDS], 0.5% sodium deoxycholate) containing 1% proteinase inhibitor cocktails (PIC) (Cell Signaling Technology). Following 30 min of incubation cells were centrifuged at 14,000 rpm at 4° C. for 15 minutes, supernatant was collected, and Protein concentration was measured by using BCA assay a kit (thermo scientific). For in vivo whole cell lysate, after completion of the in vivo experiment one C57BL/6J mice with representative tumor size from each group was sacrificed and tumor was collected, lysed by ice-cold RIPA buffer with 1% PIC, whole cell lysate was prepared following the same steps as mentioned above. Respective cell lysates were run in SDS-PAGE gel (8%-15%) and then the bands were transferred to polyvinylidene fluoride (PVDF) membrane. Membranes were then first incubated with respective primary antibodies and then with alkaline phosphates conjugated secondary antibody (Goat-anti-rabbit and Goat-anti-mouse). Immunodetection was performed with BCIP/NBT substrate (Sigma-Aldrich).
(§3) Cytochrome-C (4272S), BAX (2772S), Bcl-2 (2876S), Cassepase-3 (9665S), β-actin (8457S), PI3K-p110α (4249S), PI3K-p85 (4257S), AKT (272S), p-AKT (4060S), PTEN (9552S), p-mdm2 (3521S), p53 (2524S), GAPDH (5174S) were purchased from Cell Signaling Technology; Casepase-9 (PA5-16358) was purchased from Pierce; mdm2 (ab38618) was purchased from Abcam; secondary antibodies mouse anti-rabbit IgG-PE (sc-3753) was purchased from Santa Cruz Biotechnology; Goat anti-mouse IgG Alkaline Phosphatase (DC05L) and goat anti-rabbit IgG Alkaline Phosphatase (DC06L) were purchased from Calbiochem.

[3] = tested on: CHO; experiment: Apoptosis by flow cytometry (annexin V-FITC/PI), CHO; type: cell-based, Chinese hamster; details: 10 μM, 36 h
Procedure: as §1

[4] = tested on: B16F10 tumor; experiment: In vivo tumor study, B16F10 melanoma model; design: species or system C57BL6/J mice; details: 15 mg/Kg i.p., 5 injections
Procedure: 6-8 weeks old female C57BL6/J mice, obtained from CCMB (Hyderabad, India), were subcutaneously inoculated with 2.5×10^5 B16F10 cells in the lower left abdomen. Thirteen days after B16F10 cell inoculation, mice were grouped as per the treatment where each group contained 5 mice. The groups were as follows (i) untreated group, (ii) treated with progesterone (compound 1) (6 mg/Kg) and (iii) 6c (15 mg/Kg). Each compound suspended in PBS containing 10% DMSO and injected intraperitoneally to the respective mice. Five injections were given with a gap of 2 days. The tumor sizes were measured in volume (mm^3) and calculated using the formula (0.5ab^2), where ‘a’ represents the longest dimension and ‘b’ is the shortest dimension of the tumors. Experiment was terminated when the average tumor volume of the untreated group reached ˜4000 mm^3. All animal work was done following the protocols approved by Institutional Animal Ethical Committee of CSIR-IICT, India.

[5] = tested on: B16F10; experiment: Apoptosis by flow cytometry (annexin V-FITC/PI), B16F10; type: cell-based, murine; details: B16F10, 10 μM, 36 h
Procedure: as §1

[6] = tested on: apoptosis related protein in B16F10 cells; experiment: Western blot of B16F10 cell lysates: apoptosis related protein (FIG. 4A); type: cell-based, murine; details: B16F10, 10 μM, 36 h
Procedure: as §2, §3

[7] = tested on: B16F10 tumor lysate proteins; experiment: Western blot analysis with B16F10 tumor lysates (FIG. 5B); design: species or system C57BL/6J mice; details: B16F10 tumor lysate after in vivo treatment
Procedure: as §2, with “(Sigma-Aldrich). […]” for “(Sigma-Aldrich).”

[8] = tested on: B16F10 tumor sections; experiment: TUNEL assay with VE-cadherin staining on tumor sections; type: in vivo, mice
Procedure: After completion of the in vivo experiment, one mouse from each group was sacrificed to check the apoptosis in tumor mass. First the tumors were frozen in Jung tissue medium (Leica Microsystem, Germany) followed by cryo-sectioning of 10 μm thin sections using Leica CM1850 cryostat (Germany). These were then fixed into 4% formalin for 15 min. TUNEL assay was carried out using Dead-End fluorometric apoptosis detection kit ([…]) following manufacturer's protocol. The same cryosections were washed with PBS and incubated with VE-cadherin mouse monoclonal antibody at 1:200 dilutions (Santa Cruz Biotech.) for 2 h at 4° C. to stain the blood vessel, followed by one hour incubation with goat anti-mouse IgG-PE (Santa Cruz Biotech.) secondary antibody; after that tissue sections were washed and observed under Nikon TE2000E microscope at 10× magnification.

CCCCCCCCCC[N+](C)(CCCCCCCCCC)CCNC(=O)CCC(=O)O[C@@H](C)[C@H]1CCC2C3CCC4=CC(=O)CC[C@]4(C)C3CC[C@@]21C (stereo partly drawn) [Compound 6c, N-decyl-N-(2-(4-((1S)-1-((10R,13S,17S)-10,13-dimethyl-3-oxo-2,3,6,7,8,9,10,11,12,13,14, 15,16,17-tetradecahydro-1H-cyclopenta[a]phenanthren-17-yl)ethoxy)-4-oxobutanamido)ethyl)-N-methyldecan-1-aminium chloride]
apoptotic cell [1]: 73%
PTEN protein expression [2]: elevated expression
expression of catalytic and regulatory subunit of PI3K protein [2]: decrease in the expression
p53 expression level [2]: elevated the expression level
p-AKT level compared to PR treated group [2]: significant reduction
pMdm2 level [2]: reduced
apoptosis in normal cell [3]: largely remains unaffected
tumor growth and aggression versus UT and progesterone-treated groups ([4]; B16F10 in C57BL6/J mice): significant inhibition
tumor size of UT group compared to treated group ([4]; day 25 from tumor cell inoculation): ~4 times
apoptotic cell [5]: 53.22%
BAX/Bcl-2 ratio compared to untreated group [6]: ~4 fold
caspase 3 expression [6]: increase in level
caspase 9 [6]: formation of active caspase 9
cytochrome C expression [6]: elevated expression
caspase 3 in tumor lysate [7]: increase
p53 expression level in tumor lysate [7]: significant increase
extent of apoptosis induced in the blood vessel ([8]; TUNEL / VE-cadherin merge, tumor sections): very high
number of apoptotic cells in tumor compared to untreated or PR ([8]; TUNEL, tumor sections of treated mice): significantly higher
